In patent publication US11597724B2, “Herbicidally active 3-phenylisoxazoline-5-carboxamides of tetrahydro and dihydrofuran carboxylic acids and esters” (Bayer Aktiengesellschaft, priority 2017, dated 2023):

Assays:
Format in all cases: in vivo
Amaranthus retroflexus = test: Post-emergence herbicidal activity against AMARE; details: dosage 320 g/ha, rated about 3 weeks after treatment; for pest or weed control at 320 g/ha: Amaranthus retroflexus, 504 h
How it was run: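 Greenhouse pots of sandy loam; plants sprayed at one-leaf stage, 2 to 3 weeks after sowing, with WP or EC formulations in water plus 0.5% additive at 600 l/ha. Activity rated visually after about 3 weeks against untreated controls (100% = plants dead, 0% = like control).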

Stellaria media [1] = test: Post-emergence herbicidal activity against STEME; details: dosage 320 g/ha, rated about 3 weeks after treatment; for pest or weed control at 320 g/ha: Stellaria media, 504 h
How it was run: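 Greenhouse plants treated at one-leaf stage, 2–3 weeks after sowing, by spraying WP or EC formulations with 0.5% additive at 600 l/ha water. Visual rating about 3 weeks later versus untreated controls (100% = plants dead, 0% = like controls).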

Echinochloa crus-galli = test: Post-emergence herbicidal activity against ECHCG; details: dosage 320 g/ha, rated about 3 weeks after treatment; for pest or weed control at 320 g/ha: Echinochloa crus-galli, 504 h
How it was run: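 Greenhouse pot plants sprayed post-emergence at one-leaf stage (2-3 weeks after sowing) with WP or EC formulations, 0.5% additive, 600 l/ha water. Visual rating about 3 weeks later versus untreated controls: 100% = plants dead, 0% = like control.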

[2] = Post-emergence treatment, summary over harmful plants; details: 504 h, application rate of 0.32 kg of active substance or less per hectare, read-out: herbicidal action, post-emergence treatment (very good herbicidal activity)
How it was run: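 Greenhouse-grown weeds and crops were sprayed at the one-leaf stage (2–3 weeks post-sowing) with WP or EC formulations plus 0.5% additive at 600 l/ha water. About 3 weeks later, activity was visually rated against untreated controls (100% = dead plants, 0% = like control).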

Lolium rigidum = test: Post-emergence herbicidal activity against LOLRI; details: dosage 320 g/ha, rated about 3 weeks after treatment; for pest or weed control at 320 g/ha: Lolium rigidum, 504 h
How it was run: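 Greenhouse-grown plants sprayed post-emergence at the one-leaf stage, 2 to 3 weeks after sowing, with WP or EC formulations plus 0.5% additive at 600 l/ha water. Activity rated visually after about 3 weeks versus untreated controls (100% = plants dead, 0% = like control).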

Stellaria media [3] = test: Pre-emergence herbicidal activity against STEME; details: dosage 80 g/ha; for pest or weed control at 80 g/ha: Stellaria media, 504 h
How it was run: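 Weed seeds sown in pots and covered with soil, then WP or EC formulations sprayed onto the soil surface as aqueous suspension/emulsion with 0.5% additive at 600 l/ha water. Kept in greenhouse; visual percent effect versus untreated controls scored after about 3 weeks (100% = plants dead).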

| SMILES | pest or weed control at 320 g/ha (Amaranthus retroflexus) [%] | pest or weed control at 320 g/ha (Stellaria media [1]) [%] | pest or weed control at 320 g/ha (Echinochloa crus-galli) [%] | pest or weed control at 320 g/ha [2] [%] | pest or weed control at 320 g/ha (Lolium rigidum) [%] | pest or weed control at 80 g/ha (Stellaria media [3]) [%] | Post-emergence herbicidal activity against AMARE in % (Amaranthus retroflexus) [%] | Post-emergence herbicidal activity against STEME in % (Stellaria media [1]) [%] | Post-emergence herbicidal activity against ECHCG in % (Echinochloa crus-galli) [%] | Post-emergence herbicidal activity against LOLRI in % (Lolium rigidum) [%] | Pre-emergence herbicidal activity against STEME in % (Stellaria media [3]) [%] |
| --- | --- | --- | --- | --- | --- | --- | --- | --- | --- | --- | --- |
| C=C[C@]1(C(=O)N[C@H]2CO[C@@H](C(=O)OC)C2)CC(c2cc(F)cc(F)c2)=NO1 (mixture of isomers) [I-10, methyl cis-4-[[(5S)-3-(3,5-difluorophenyl)-5-vinyl-4H-isoxazole-5-carbonyl]amino]tetrahydrofuran-2-carboxylate] | 80 | 90 | 100 | 80 to 100 | 100 | 100 |  |  |  |  |  |
| C=C[C@]1(C(=O)N[C@H]2CO[C@@H](C(=O)OCC)C2)CC(c2cc(F)cc(F)c2)=NO1 (mixture of isomers) [I-35, ethyl cis-4-[[(5S)-3-(3,5-difluorophenyl)-5-vinyl-4H-isoxazole-5-carbonyl]amino]tetrahydrofuran-2-carboxylate] | 90 | 90 | 100 | 80 to 100 | 100 | 100 |  |  |  |  |  |
| C=C[C@]1(C(=O)N[C@H]2CO[C@@H](C(=O)OC(C)C)C2)CC(c2cc(F)cc(F)c2)=NO1 (mixture of isomers) [I-36, isopropyl cis-4-[[(5S)-3-(3,5-difluorophenyl)-5-vinyl-4H-isoxazole-5-carbonyl]amino]tetrahydrofuran-2-carboxylate] | 90 | 90 | 90 | 80 to 100 | 90 | 100 |  |  |  |  |  |
| C=C[C@]1(C(=O)N[C@H]2CO[C@@H](C(=O)OCc3ccccc3)C2)CC(c2cc(F)cc(F)c2)=NO1 (mixture of isomers) [I-37, benzyl cis-4-[[(5S)-3-(3,5-difluorophenyl)-5-vinyl-4H-isoxazole-5-carbonyl]amino]tetrahydrofuran-2-carboxylate] | 80 | 90 | 90 | 80 to 100 | 90 | 100 |  |  |  |  |  |
| C=C[C@]1(C(=O)N[C@H]2CO[C@@H](C(=O)OC(C)(C)C)C2)CC(c2cc(F)cc(F)c2)=NO1 (mixture of isomers) [I-38, tert-butyl cis-4-[[(5S)-3-(3,5-difluorophenyl)-5-vinyl-4H-isoxazole-5-carbonyl]amino]tetrahydrofuran-2-carboxylate] | 100 | 90 | 90 | 80 to 100 | 90 | 100 |  |  |  |  |  |
| COC(=O)C1CC(NC(=O)C2(C)CC(c3cc(F)cc(F)c3)=NO2)CO1 (mixture of isomers) [I-48] |  |  |  |  |  |  | 80 | 90 | 90 | 90 | 100 |
| CC(C)OC(=O)[C@H]1C[C@@H](NC(=O)C2(C)CC(c3cccc(F)c3)=NO2)CO1 (mixture of isomers) [I-32, isopropyl cis-4-[[(5RS)-3-(3-fluorophenyl)-5-methyl-4H-isoxazole-5-carbonyl]amino]tetrahydrofuran-2-carboxylate] | 80 | 90 | 90 | 80 to 100 | 100 | 90 |  |  |  |  |  |
| CC(C)(C)OC(=O)[C@H]1C[C@@H](NC(=O)C2(C)CC(c3cccc(F)c3)=NO2)CO1 (mixture of isomers) [I-33, tert-butyl cis-4-[[(5RS)-3-(3-fluorophenyl)-5-methyl-4H-isoxazole-5-carbonyl]amino]tetrahydrofuran-2-carboxylate] | 90 | 90 | 80 | 80 to 100 | 100 | 100 |  |  |  |  |  |
| CC1(C(=O)N[C@H]2CO[C@@H](C(=O)OCc3ccccc3)C2)CC(c2cccc(F)c2)=NO1 (mixture of isomers) [I-34, benzyl cis-4-[[(5RS)-3-(3-fluorophenyl)-5-methyl-4H-isoxazole-5-carbonyl]amino]tetrahydrofuran-2-carboxylate] | 80 | 90 | 90 | 80 to 100 | 90 | 90 |  |  |  |  |  |
| C=C[C@]1(C(=O)N[C@H]2CO[C@@H](C(=O)OC)C2)CC(c2cc(F)cc(F)c2)=NO1 (single isomer, unassigned) [I-11] | 90 | 90 | 90 |  | 100 |  |  |  |  |  | 100 |
| C=C[C@]1(C(=O)N[C@H]2CO[C@@H](C(=O)OC)C2)CC(c2cc(F)cc(F)c2)=NO1 (single isomer, unassigned) [I-12] |  |  |  | 80 to 100 |  | 100 | 90 | 90 | 90 | 100 |  |
| CC(C)OC(=O)C1CC(NC(=O)C2(C)CC(c3cc(F)cc(F)c3)=NO2)CO1 (stereo not drawn) [I-44] |  |  |  |  |  |  | 80 | 90 | 100 | 100 | 90 |
| COC(=O)C1=C[C@@H](NC(=O)C2(C)CC(c3cccc(F)c3)=NO2)CO1 (stereo partly drawn) [I-46, methyl (3R)-3-[[3-(3-fluorophenyl)-5-methyl-4H-isoxazole-5-carbonyl]amino]-2,3-dihydrofuran-5-carboxylate] | 80 | 90 | 100 | 80 to 100 | 100 | 100 |  |  |  |  |  |
